# Results taken from patent US10370647B2 (priority 2015, dated 2019).
# Legend:
# KFtx series = assay: Paclitaxel resistance properties of the KFtx series (surviving cells, Cell Titer-Glo); assay type: cell-based; settings: Low and Empty Low (low UCA1 expression); PTx 0 to 500 nM, 48 hours
# Experimental: Paclitaxel resistance properties of the KFtx series comprising the cell line stably expressing UCA1 were compared. The KFtx series were seeded at a cell density of 6×10^3/well on a 96-well plate, and after the cells had been cultured at 37° C. for 12 hours, during which the cells were considered to adhere to the plate, the medium was exchanged with PTx-containing RPMI. The concentrations of PTx were set to be 0, 2, 5, 20, 50, 100, 200, and 500 nM. The cells were further cultured at 37° C. for 48 hours, and the number of surviving cells was then quantified using Cell Titer-Glo (Promega) and was then compared.
# Low cells = assay type: in vivo, BALB/cAJcl-nu/nu mice; settings: KF cell-derived tumors (Low group); 7 days after Paclitaxel 1 mg/ml/mouse
# KFtx cells = assay type: in vivo, BALB/cAJcl-nu/nu mice; settings: KFTx cell-derived tumors; 7 days after Paclitaxel 1 mg/ml/mouse
smiles,measurement,setting,value
"CC(=O)O[C@H]1C(=O)[C@@]2(C)[C@H]([C@H](OC(=O)c3ccccc3)[C@]3(O)C[C@H](OC(=O)[C@H](O)[C@@H](NC(=O)c4ccccc4)c4ccccc4)C(C)=C1C3(C)C)[C@]1(OC(C)=O)CO[C@@H]1C[C@@H]2O [PTx, Paclitaxel]",number of surviving cells,KFtx series,significantly decreased
same,tumors disappeared (Rluc imaging),Low cells,≥ 95%
same,tumors after administration of PTx (Rluc imaging),KFtx cells,remained
